Reference: patent US20140121164A1, “PREVENTION OF KIDNEY INJURY OR DISEASE” (University of Florida Research Foundation, priority 2012, published 2014)
“Also recorded” adds a separate entry of the source.

Tests used:
subjects = experiment: Evaluation of rate of infusion of AP214 (CS002); type: in vivo, human
Method: To establish a suitable rate of infusion of AP214 a set of patient trials were performed.
AP214 isotonic solution single ascending doses (25, 50 and 100 μg/kg) for intravenous infusion administered over 10 minutes, or placebo (saline infusion).
AP214 isotonic solution single doses (100 μg/kg over 1 minute; 100 μg/kg over 30 seconds; 200 μg/kg over 30 seconds) for intravenous infusion.

[1] = system: patients undergoing cardiac surgery; experiment: Prevention of AKI by different dosage regimes of AP214 in patients undergoing cardiac surgery (CS005 protocol); type: in vivo, human
Method: Each of 12 patients undergoing cardiac surgery (the AP214 group) was dosed with 600 μg/kg AP214: 200 μg/kg at skin incision, 200 μg/kg at cross clamp release, and 200 μg/kg 6-hour after cross clamp release. Each dosage was provided over a period of 10 minutes. The placebo group included 13 patients undergoing cardiac surgery without AP214 infusion.
Objectives • trial objective was to assess the effect of AP214 on • 1) changes in serum creatinine, cystatin-C and carbamade, • 2) on eGFR and • 3) on the development of post-surgical acute kidney injury (AKI) • AKI also assessed (post-hoc analysis) by AKIN and RIFLE
Three different definitions of AKI were tested: • 1) 3 patients in the AP214 group developed AKI, in contrast to 7 patients in the placebo group who developed AKI. AKI is defined as in the CS005 protocol: • An absolute increase in serum creatinine of more than or equal to 26.4 μmol/l (0.3 mg/dl) or • A percentage increase in serum creatinine of more than or equal to 50% (1.5-fold from baseline) from Day 0-14 and/or • Urine output less than 0.5 mL/kg per hour for more than 6 hours. • 2) AKI according to the AKIN score as presented in FIG. 3a, and • 3) AKI according to the RIFLE score as presented in FIG. 3b.

[2] = system: pigs after induction of complete warm ischemia in the kidney; details: 200 μg/kg, 10 ml i.v. bolus during 1 minute, seven doses; cited from earlier work
[3] = system: patients undergoing cardiac surgery on cardiopulmonary bypass (CPB); experiment: CS007 trial: short and long term efficacy signals and safety of AP214 in patients undergoing cardiac surgery on cardiopulmonary bypass; type: in vivo, human; details: for average serum creatinine values over time: through 168 hours post surgery; for outcomes as measured by the composite endpoint (all cause death, RRT, kidney function): 90 day post-operative period, vs placebo; for population distribution of extreme serum creatinine values: highest quartile; for kidney function as measured by estimated GFR: seven day post-operative period
Excerpt: The CS007 trial was designed to study both short and long term efficacy signals (FIG. 5).
Primary Aims • Safety: Safety and tolerability vs. placebo • Efficacy: Max post-operative change in absolute values of SCr compared to baseline within the first 7 days after surgery or until discharge from hospital, whichever comes first vs. placebo.
Secondary Aims • Composite: • Assess the proportion of patients reaching the composite endpoint of death, need for RRT or a 25% reduction in renal function over a 90 day post-operative period vs. placebo. • AKIN: Assess post-operative incidence of AKI within 48 hours post-surgery • RIFLE: Assess post-operative incidence of AKI within first 7 days post-surgery. • SCr: Changes between surgery and postoperative day 7. • GFR: Changes at day 90 compared to baseline. • eGFR: Changes between surgery and postoperative day 7
Each dosage was provided over a period of 10 minutes. As used throughout this disclosure and unless specified otherwise, “μg/kg” refers to μg AP214 per kg bodyweight of the patient being treated.
Moreover, in the same double-blind study described in this Example, patients undergoing cardiac surgery on cardiopulmonary bypass (CPB) were randomized to placebo (PBO; n=26), AP214 given at either 600 μg/kg (n=25), or 800 μg/kg (n=26), divided into 3 bolus infusions at the predetermined intervals as described above. AKI was determined according to AKIN and RIFLE scores.

[4] = 600 μg/kg bodyweight (3×200 μg/kg), i.v. over 10 min each, vs placebo
[5] = 600 μg/kg bodyweight, vs placebo

CSCC[C@H](NC(=O)[C@H](CO)NC(=O)[C@H](Cc1ccc(O)cc1)NC(=O)[C@H](CO)NC(=O)[C@H](CCCCN)NC(=O)[C@H](CCCCN)NC(=O)[C@H](CCCCN)NC(=O)[C@H](CCCCN)NC(=O)[C@H](CCCCN)NC(=O)[C@H](CCCCN)NC(C)=O)C(=O)N[C@@H](CCC(=O)O)C(=O)N[C@@H](Cc1c[nH]cn1)C(=O)N[C@@H](Cc1ccccc1)C(=O)N[C@@H](CCCNC(=N)N)C(=O)N[C@@H](Cc1c[nH]c2ccccc12)C(=O)NCC(=O)N[C@@H](CCCCN)C(=O)N1CCC[C@H]1C(=O)N[C@H](C(N)=O)C(C)C [AP214, Acetyl-Lysyl-L-lysyl-L-lysyl-L-lysyl-L-lysyl-L-lysyl-L-seryl-L-tyrosyl-L-seryl-L-methionyl-Lglutamyl-L-histidyl-L-phenylalanyl-L-arginyl-L-tryptophanyl-glycyl-L-lysyl-L-prolyl-L-valine amide]
adverse events relative to 100 μg/kg over 30 sec and 1 minute (subjects; 200 μg/kg over 30 seconds): more adverse events | subjects reporting erythema (subjects; Group 2 (n=6), short infusion times): 6 subjects | adverse events (subjects; Group 2 (n=6), short infusion times: 100 μg/kg over 1 minute, 100 μg/kg over 30 seconds, 200 μg/kg over 30 seconds, i.v.): large number of adverse events | episodes of vomiting in one subject (subjects; Group 2, short infusion times): 8 episodes | tolerability (subjects; fast infusion rates): not well tolerated | adverse effects (subjects; slower infusion rate, 100 μg/kg over 10 minutes): did not show these adverse effects | tolerability (subjects; slower infusion rates (e.g., 10 minutes)): better tolerated | prevention of AKI as compared to the placebo ([1]; 150 μg/kg bodyweight (3×50 μg/kg), same dosing scheme): showed no prevention of AKI | patients who developed AKI (AKI as defined in the CS005 protocol) ([1]; 600 μg/kg (3×200 μg/kg), AP214 group of 12 patients, Day 0-14): 3 patients | development of AKI according to the RIFLE score and AKIN scores ([1]; 600 μg/kg bodyweight (3×200 μg/kg)): demonstrated prevention in the development of AKI | decrease in eGFR [1, 4]: prevented a decrease in eGFR | increase in serum creatinine [1, 4]: prevented | increase in carbamide [1, 5]: prevented | increase in cystatin C [1, 5]: prevented an increase in cystatin C | renoprotective effect [2]: provides a renoprotective effect | average serum creatinine values over time ([3]; 600 μg/kg (3×200 μg/kg)): decreased average serum creatinine; also recorded: decreasing average serum creatinine values over time | outcomes as measured by the composite endpoint (all cause death, RRT, kidney function) ([3]; 600 μg/kg): reduction in outcomes with the 600 μg/kg dosage showing statistical significance; also recorded: reduction in negative outcomes | population distribution of extreme serum creatinine values ([3]; 600 μg/kg): reduction in serum creatinine values at the highest quartile | kidney function as measured by estimated GFR ([3]; 600 μg/kg): increased kidney function | degrees of acute kidney injury compared to placebo ([3]; 800 μg/kg): lesser degrees of acute kidney injury | patients scored as AKI by AKIN and RIFLE criteria ([3]; 800 μg/kg): decrease in patients scored as AKI | average serum creatinine values over time ([3]; 800 μg/kg (1×200, 1×400, 1×200 μg/kg)): decreased average serum creatinine; also recorded: decreasing average serum creatinine values over time | GFR change (reduction) at Day 90 compared to baseline ([3]; 800 μg/kg vs. placebo, Danish sites only): significantly lower GFR change (reduction) | outcomes as measured by the composite endpoint (all cause death, RRT, kidney function) ([3]; 800 μg/kg): reduction in negative outcomes | incidence of AKI compared with PBO by surgery type ([3]; 800 μg/kg, combined CABG and valve surgery, multiple valve surgery, chronic kidney disease and CABG (or valve surgery)): numerically lower incidence of AKI | population distribution of extreme serum creatinine values ([3]; 800 μg/kg): reduction in serum creatinine values at the highest quartile | kidney function as measured by estimated GFR ([3]; 800 μg/kg): increased kidney function | safety and tolerability ([3]; 600 and 800 μg/kg, each dosage over 10 minutes): safe and well tolerated
